Measured values published in article doi:10.1101/2023.02.14.528391v1 (biorxiv, 2023).

The compounds below were run against hERG potassium channel (Homo sapiens, UniProt Q12809) (assay: in vitro). Conditions: not given.
hERG potassium channel, sequence (Q12809 whole entry): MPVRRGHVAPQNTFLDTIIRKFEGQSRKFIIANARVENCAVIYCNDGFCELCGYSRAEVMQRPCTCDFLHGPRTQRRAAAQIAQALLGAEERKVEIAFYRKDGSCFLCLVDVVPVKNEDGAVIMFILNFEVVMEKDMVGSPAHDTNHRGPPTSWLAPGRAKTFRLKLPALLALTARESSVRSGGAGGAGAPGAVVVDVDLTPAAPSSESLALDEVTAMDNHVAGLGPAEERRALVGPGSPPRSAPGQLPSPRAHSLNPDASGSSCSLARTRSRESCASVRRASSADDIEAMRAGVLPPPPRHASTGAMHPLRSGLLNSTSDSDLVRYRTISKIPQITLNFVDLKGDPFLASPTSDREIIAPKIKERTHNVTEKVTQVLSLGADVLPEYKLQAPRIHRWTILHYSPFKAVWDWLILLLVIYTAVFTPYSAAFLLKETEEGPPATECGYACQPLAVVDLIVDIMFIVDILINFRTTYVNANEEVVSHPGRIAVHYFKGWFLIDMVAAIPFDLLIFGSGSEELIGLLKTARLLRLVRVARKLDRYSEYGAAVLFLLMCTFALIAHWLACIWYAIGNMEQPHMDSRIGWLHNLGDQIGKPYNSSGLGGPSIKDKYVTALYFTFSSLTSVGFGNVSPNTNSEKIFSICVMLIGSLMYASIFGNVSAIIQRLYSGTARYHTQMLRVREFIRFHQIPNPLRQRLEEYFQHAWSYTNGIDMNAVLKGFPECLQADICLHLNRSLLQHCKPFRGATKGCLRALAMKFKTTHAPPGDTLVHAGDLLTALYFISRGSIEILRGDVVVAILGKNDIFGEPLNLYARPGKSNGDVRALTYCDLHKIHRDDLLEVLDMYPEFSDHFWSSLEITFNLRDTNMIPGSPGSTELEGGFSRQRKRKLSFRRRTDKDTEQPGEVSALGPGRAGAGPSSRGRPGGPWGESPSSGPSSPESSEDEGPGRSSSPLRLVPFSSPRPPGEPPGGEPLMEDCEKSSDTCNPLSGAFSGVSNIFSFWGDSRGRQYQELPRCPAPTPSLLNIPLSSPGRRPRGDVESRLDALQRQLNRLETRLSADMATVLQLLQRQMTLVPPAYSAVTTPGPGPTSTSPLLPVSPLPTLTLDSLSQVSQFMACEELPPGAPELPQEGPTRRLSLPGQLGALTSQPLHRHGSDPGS

Compound	inhibition at 10 µM
CN(C)CCN(Cc1ccccc1F)C(=O)Cc1c[nH]c2nccc(Cl)c12 [s_22____1322108____13142180]	38.7%

Same assay, conditions: % inhibition

Compound	inhibition at 10 µM
Cc1ccc2c(C(=O)N(CCN(C)C)c3ccccn3)ccnc2c1Cl [s_11____17828754____14179334]	29.9%
CN(C)CCC(Sc1nccn1Cc1ccccn1)c1ccccc1 (stereo not drawn) [s_7____4839872____13940010]	5.79%
CN(C)CCN(Cc1nccn1C)c1cc(C(F)F)nc2ccc(Cl)cc12 [s_27____16636988____10213920]	61%
CN(C)CCN(Cc1ccsc1)C(=O)c1cc2c(Cl)cncc2s1 [s_11____10910498____13033826]	79.5%
COc1c(Cl)cc(C(=O)N(CCN(C)C)C2CCCCC2)c2ncccc12 [s_22____4639446____15428718]	42.7%
Cc1csc2ccnc(N3CCOCC4(COCCN4Cc4ccccc4)C3)c12 (stereo not drawn) [s_27____15756872____16607386]	62.1%
CN(C)CCN(CCCc1ccccc1)C(=O)c1cn(C)c2ccccc12 [s_22____2161756____115777]	63.8%
CC(=Cc1ccccn1)C(=O)N(CCN(C)C)c1ccccc1 [s_11____2264406____11762612]	18.8%
CN(C)CCN(Cc1nccn1C)c1nc(-c2ccccn2)nc2sccc12 [s_27____16636988____12321872]	91.6%
CN(C)CCn1nc(-c2cccnc2)c2ccccc2c1=O [GMD_36918]	2.87%
CN(C)CCn1nc(-c2cncc(Cl)c2)c2ccccc2c1=O [NBI1099473]	86.1%
CN(C)CCn1nc(-c2ccccn2)c2ccccc2c1=O [GMD_13601]	16.6%
Cc1ccc(C(=O)N(CCN(C)C)Cc2ccccc2)c2ncccc12 [s_527____284286____13308974]	69.2%
CN(C)CCCn1nc(-c2ccccc2Cl)c2ccccc2c1=O [GMD_16666]	10.6%
CN(C)CCOc1ccccc1-c1cn(C)c2cccnc12 [s_271570____11676396____16733458]	63.8%
CN(C)CCN(Cc1ccccc1)C(=O)N1CCSc2ccncc21 [s_272164____9389444____9363352]	31.1%
CN(C)CCN(Cc1ccccc1F)C(=O)c1cccc2cccnc12 [s_11____4836284____101939]	55%
CN(C)CCN(Cc1ccccc1F)c1ncc(Cl)cc1Cl [s_27____7100864____12221638]	86.4%
CN(C)CCN(Cc1ccccc1)C(=O)c1ncccc1Cl [s_11____117338____10437082]	9.12%

Compound	inhibition at 10 µM
CN(C)CCn1nc(-c2cccs2)c2ccccc2c1=O [NBI1099533]	9.92%
Cc1cccc(CN(CCN(C)C)C(=O)C2=Cc3ccc(Cl)cc3OC2)c1 [s_22____3218898____13770932]	94.3%
CN(C)CCN(Cc1ccccc1)C(=O)c1cc(-c2ccccn2)ccc1Cl [s_527____284286____7794996]	55%
CN(C)CCN(Cc1ccccc1)Cc1c(Cl)cccc1-n1ccnc1 [s_270004____10205888____17057166]	71.1%
CN(C)CCN(CCc1ccccc1)C(=O)c1csc2cc(Cl)cnc12 [s_11____764634____11618976]	88.2%
CN(C)CCN(Cc1nccn1C)C(=O)c1ccn(-c2ccccc2Cl)n1 [s_22____16636986____2366818]	25.8%
CN(C)CCc1nc2ccccc2n1Cc1ccc(F)cc1 [GMD_9161]	6.04%
CC1CCCCC1N=c1scc(-c2ccnn2C)n1N=Cc1ccc(Cl)cn1 (stereo not drawn) [s_1____86334____13026574____11759950]	-2.58%
CN(C)CCC(Sc1ccncc1F)c1ccccc1 (stereo not drawn) [s_7____14325654____13940010]	47.3%
CSc1ncccc1-c1nn(CCN(C)C)c(=O)c2ccccc12 [NBI1100648]	44.2%
COCCN(CCN(C)C)Cc1c(Cl)cccc1Oc1ccccc1 [s_270004____10206068____8363900]	99%
CN(C)CCN(Cc1ccccc1F)C(=O)c1c(Cl)ccc2cccnc12 [s_527____7348186____16891240]	59.1%
CN(C)CCN(Cc1cccs1)Cc1cc2cnn(C)c2nc1Cl [s_270004____10206112____16971162]	78.3%
CN(Cc1sccc1Cl)C[C@H]1CCCCN1C(=O)c1ncccc1F	27.4%
COCCN(CCN(C)C)C(=O)c1cccnc1Oc1ccc(Cl)cc1Cl [s_22____3489604____2009120]	48.6%
CN(C)CCn1nc(-c2ccncc2)c2ccccc2c1=O [NBI1099472]	15%
CN(C)CCN(Cc1ccc(F)c(F)c1)C(=O)c1ccnc(Cl)c1Cl [s_22____2224104____12421166]	23.5%
CN(C)CCCN(C)Cc1c(-c2ccccc2F)nn(C)c1Cl [s_270004____10205916____16947572]	17.6%
CN(C)CCN(C(=O)c1cccc2ncccc12)c1ccccc1 [s_11____2264406____15260550]	21.8%

Compound	inhibition at 10 µM
CN(CCCN(C)C(=O)c1ccnc2ccsc12)C(=O)c1cncc(Cl)c1	2.59%
CN(C)CCN(Cc1ccccc1F)C(=O)c1nccc2ncccc12 [s_527____7348186____14775532]	33.1%
CN(C)CCCSc1nnc(-c2cnccn2)n1-c1ccc(Cl)cc1 [s_7____7285292____9475634]	32.1%
Cc1cccc2c(C(=O)N(CCN(C)C)c3ccccn3)cnn12 [s_11____17828754____16474570]	20.8%
CN(C)CCc1nc2ccccc2n1Cc1ccc(F)c(F)c1 [GMD_9634]	16.1%
Cc1cc2nc(Cl)nc(N(CCN(C)C)Cc3nccn3C)c2s1 [s_27____16636988____12112620]	71.2%
CN(C)c1ncccc1CN1CCN(C(=O)c2c(Cl)cccc2Cl)CC1 [s_270004____8133704____10229386]	2.59%
CN(CCN(C)C(=O)c1cccnc1N(C)C)Cc1cccc(Cl)c1	17.1%
CN(C)CCN(Cc1cccc(Cl)c1)C(=O)N1CCSc2ccncc21 [s_272164____9389444____9369516]	75.9%
CN(C)CCCN(Cc1ccc(Cl)c(Cl)c1)C(=O)c1ccn2c1CSCC2 [s_527____1500312____16910956]	66.8%
CC(=Cc1ccccc1Cl)C(=O)N(CCN(C)C)c1ccccn1 [s_11____17828754____7832710]	48.4%
CN(C)CCN(Cc1cccc(OCc2ccc(F)cc2)c1)Cc1nccn1C [s_270004____16637008____8127840]	91.3%
CN(C)CCCN(Cc1ccc(Cl)c(Cl)c1)c1cnc2ccccc2n1 [s_27____7425384____262944]	93.6%
Clc1ccccc1N(CCN1CCOCC1)Cc1cc2ncccc2s1 [s_2230____12297302____16648172]	66%
Clc1ccccc1-n1ccc(CNC2(c3ncccn3)CCOCC2)n1 [s_2230____13270592____17316260]	-0.942%
Cc1ccc2cc(C(=O)N(CCN(C)C)Cc3ccccc3F)ccc2n1 [s_527____7348186____7593650]	21.8%
Cc1ccc(-c2nn(CN(C)CCC3CCOCC3)c(=O)c3ccccc23)cc1 [m_26____7043632____590162]	7.12%
CN(C)CCCN(Cc1ccc(Cl)c(Cl)c1)C(=O)c1nccnc1Cl [s_22____1500308____12360522]	57.7%
